Experimental data from patent publication US11976083B2, “Inhibitors of peptidylarginine deiminases” (Gilead Sciences, Inc., priority 2020, dated 2024).

Biological target: T1, human PAD4 (Homo sapiens, UniProt Q9UM07)
T1 construct: human PAD4 (NM_012387), A2-P663, was PCR amplified; His-SUMO (N, cleaved yes); made in house; host or cells: E. coli BL21(DE3)
Assay: In vitro PAD4 BAEE biochemical assay
Settings: BAEE substrate 3 mM, 5 nM PAD4, 2 mM calcium chloride; geometric mean of multiple experiments
Summary of the method: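 Assay was run at 25 °C using 3 mM BAEE and 5 nM human PAD4 after a 30 min compound preincubation; ammonia produced over 2 h was quantified by OPA-derived fluorescence. Full inhibition was defined by 50 µM BB-Cl-Amidine, and IC50 came from variable-slope nonlinear regression.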

T1 sequence (Q9UM07 2-663): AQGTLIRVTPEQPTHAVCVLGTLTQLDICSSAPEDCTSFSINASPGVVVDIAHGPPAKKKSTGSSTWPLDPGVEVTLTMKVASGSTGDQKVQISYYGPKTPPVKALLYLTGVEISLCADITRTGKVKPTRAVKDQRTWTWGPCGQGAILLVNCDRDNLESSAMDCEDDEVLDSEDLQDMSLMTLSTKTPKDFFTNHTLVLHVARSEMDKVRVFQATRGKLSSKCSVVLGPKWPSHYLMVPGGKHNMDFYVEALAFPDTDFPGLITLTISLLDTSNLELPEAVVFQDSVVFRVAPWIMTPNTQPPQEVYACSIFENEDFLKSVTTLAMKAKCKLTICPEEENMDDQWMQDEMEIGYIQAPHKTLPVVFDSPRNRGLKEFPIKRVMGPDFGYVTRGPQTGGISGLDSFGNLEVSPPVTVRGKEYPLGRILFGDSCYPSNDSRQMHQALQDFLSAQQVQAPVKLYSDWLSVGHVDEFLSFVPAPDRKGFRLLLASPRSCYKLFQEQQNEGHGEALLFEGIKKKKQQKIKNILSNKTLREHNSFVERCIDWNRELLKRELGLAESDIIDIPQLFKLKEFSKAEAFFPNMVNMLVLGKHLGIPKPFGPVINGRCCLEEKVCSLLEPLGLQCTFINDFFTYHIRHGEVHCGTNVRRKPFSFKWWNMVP

| SMILES | IC50 [nM] |
| --- | --- |
| COc1cc(C(=O)N2[C@H]3CC[C@@H]2[C@H](N)C3)cc2nc(-c3cc4ccc5nc4n3CCCCCCCC(=O)NC5C3CC3)n(C)c12 (stereo partly shown) [Example 259, 17-[5-[(1˜{R},2˜{R},4˜{S})-2-amino-7-azabicyclo[2.2.1]heptane-7-carbonyl]-7-methoxy-1-methyl-benzimidazol-2-yl]-11-cyclopropyl-1,10,19-triazatricyclo[10.5.2.0^{15,18}]nonadeca-12(19),13,15(18),16-tetraen-9-one] | 37 |
| COc1cc(C(=O)N2CC[C@H]3CCCN[C@H]3C2)cc2nc(-c3cc4ccc5nc4n3CCCCCCC3(CC3)C(=O)N[C@@H]5C)n(C)c12 [Example 260, (11~{R})-17-[5-[(4~{a}~{R},8~{a}~{R})-2,3,4,4~{a},5,6,8,8~{a}-octahydro-1~{H}-1,7-naphthyridine-7-carbonyl]-7-methoxy-1-methyl-benzimidazol-2-yl]-11-methyl-spiro[1,10,19-triazatricyclo[10.5.2.0^{15,18}]nonadeca-12(19),13,15(18),16-tetraene-8,1′-cyclopropane]-9-one] | 453 |
| COc1cc(C(=O)N2CCC[C@@H](N)C2)cc2nc(-c3cc4ccc5nc4n3CCCCCCC3(CCC3)C(=O)N[C@@H]5C)n(C)c12 [Example 263, (11~{R})-17-[5-[(3~{R})-3-aminopiperidine-1-carbonyl]-7-methoxy-1-methyl-benzimidazol-2-yl]-11-methyl-spiro[1,10,19-triazatricyclo[10.5.2.0^{15,18}]nonadeca-12(19),13,15(18),16-tetraene-8,1′-cyclobutane]-9-one] | 69 |
| COc1cc(C(=O)N2CCC[C@@H](N)C2)cc2nc(-c3cc4ccc5nc4n3C[C@@H]3C[C@H]3C(OC)CCCC(=O)N[C@@H]5C)n(C)c12 (stereo partly shown) [Example 264, (3~{R},5~{R},12~{R})-18-[5-[(3~{R})-3-aminopiperidine-1-carbonyl]-7-methoxy-1-methyl-benzimidazol-2-yl]-6-methoxy-12-methyl-1,11,20-triazatetracyclo[11.5.2.0^{3,5}.0^{16,19}] icosa-13(20),14,16(19),17-tetraen-10-one] | 91 |
| COc1cc(C(=O)N2CCC[C@@H](N)C2)cc2nc(-c3cc4ccc5nc4n3C[C@@H]3C[C@H]3COC[C@@H](C)C(=O)N[C@@H]5C)n(C)c12 [Example 265, (5~{R},9~{R},12~{R})-18-[5-[(3~{R})-3-aminopiperidine-1-carbonyl]-7-methoxy-1-methyl-benzimidazol-2-yl]-9,12-dimethyl-7-oxa-1,11,20-triazatetracyclo[11.5.2.0^{3,5}.0^{16,19}] icosa-13(20),14,16(19),17-tetraen-10-one] | 81 |
| COc1cc(C(=O)N2CCC[C@@H](N)C2)cc2nc(-c3cc4ccc5nc4n3C[C@@H]3C[C@H]3COC[C@H](C)C(=O)N[C@@H]5C)n(C)c12 [Example 266, (5~{R},9~{S},12~{R})-18-[5-[(3~{R})-3-aminopiperidine-1-carbonyl]-7-methoxy-1-methyl-benzimidazol-2-yl]-9,12-dimethyl-7-oxa-1,11,20-triazatetracyclo[11.5.2.0^{3,5}.0^{16,19}] icosa-13(20),14,16(19),17-tetraen-10-one] | 153 |
| COc1cc(C(=O)N2CCC[C@@H](N)C2)cc2nc(-c3cc4ccc5nc4n3C[C@@H]3C[C@H]3CO[C@@H](C)CC(=O)N[C@@H]5C)n(C)c12 [Example 267, (5~{R},8~{S},12~{R})-18-[5-[(3~{R})-3-aminopiperidine-1-carbonyl]-7-methoxy-1-methyl-benzimidazol-2-yl]-8,12-dimethyl-7-oxa-1,11,20-triazatetracyclo[11.5.2.0^{3,5}.0^{16,19}] icosa-13(20),14,16(19),17-tetraen-10-one] | 88 |
| COc1cc(C(=O)N2CCC[C@@H](N)C2)cc2nc(-c3cc4ccc5nc4n3C[C@@H]3C[C@H]3CO[C@H](C)CC(=O)N[C@@H]5C)n(C)c12 [Example 268, (5~{R},8~{R},12~{R})-18-[5-[(3~{R})-3-aminopiperidine-1-carbonyl]-7-methoxy-1-methyl-benzimidazol-2-yl]-8,12-dimethyl-7-oxa-1,11,20-triazatetracyclo[11.5.2.0^{3,5}.0^{16,19}] icosa-13(20),14,16(19),17-tetraen-10-one] | 137 |
| COc1cc(C(=O)N2CCC[C@@H](N)C2)cc2nc(-c3cc4ccc5nc4n3C[C@@H]3C[C@H]3CCCCC(=O)N[C@@H]5C)n(C)c12 [Example 269, (3~{R},5~{R},12~{R})-18-[5-[(3~{R})-3-aminopiperidine-1-carbonyl]-7-methoxy-1-methyl-benzimidazol-2-yl]-12-methyl-1,11,20-triazatetracyclo[11.5.2.0^{3,5}.0^{16,19}] icosa-13(20),14,16(19),17-tetraen-10-one] | 36 |
| COc1cc(C(=O)N2CCC[C@@H](N)C2)cc2nc(-c3cc4ccc5nc4n3C[C@@H]3C[C@H]3C(OC)CCCC(=O)N[C@@H]5C)n(C)c12 (stereo partly shown) [Example 270, (3~{R},5~{R},12~{R})-18-[5-[(3~{R})-3-aminopiperidine-1-carbonyl]-7-methoxy-1-methyl-benzimidazol-2-yl]-6-methoxy-12-methyl-1,11,20-triazatetracyclo[11.5.2.0^{3,5}.0^{16,19}] icosa-13(20),14,16(19),17-tetraen-10-one] | 90 |
| COc1cc(C(=O)N2CCC[C@@H](N)C2)cc2nc(-c3cc4ccc5nc4n3C[C@H]3C[C@@H]3COC(C)CC(=O)N[C@@H]5C)n(C)c12 (stereo partly shown) [Example 271, (3~{S},5~{S},12~{R})-18-[5-[(3~{R})-3-aminopiperidine-1-carbonyl]-7-methoxy-1-methyl-benzimidazol-2-yl]-8,12-dimethyl-7-oxa-1,11,20-triazatetracyclo[11.5.2.0^{3,5}.0^{16,19}] icosa-13(20),14,16(19),17-tetraen-10-one] | 65 |
| COc1cc(C(=O)N2CCC[C@@H](N)C2)cc2nc(-c3cc4ccc5nc4n3C[C@@H]3C[C@H]3CCCC(C)C(=O)N[C@@H]5C)n(C)c12 (stereo partly shown) [Example 272, (3~{R},5~{R},12~{R})-18-[5-[(3~{R})-3-aminopiperidine-1-carbonyl]-7-methoxy-1-methyl-benzimidazol-2-yl]-9,12-dimethyl-1,11,20-triazatetracyclo[11.5.2.0^{3,5}.0^{16,19}] icosa-13(20),14,16(19),17-tetraen-10-one] | 69 |
| COc1cc(C(=O)N2CCC[C@@H](N)C2)cc2nc(-c3cc4ccc5cc4n3CCC/C=C/CC(C)(C)C(=O)N[C@@H]5C)n(C)c12 [Example 273, (5˜{E},11˜{R})-17-[5-[(3˜{R})-3-aminopiperidine-1-carbonyl]-7-methoxy-1-methyl-benzimidazol-2-yl]-8,8,11-trimethyl-1,10-diazatricyclo[10.5.2.0^{15,18}]nonadeca-5,12(19),13,15(18),16-pentaen-9-one] | 68 |
| COc1cc(C(=O)N2CCC[C@@H](N)C2)cc2nc(-c3cc4ccc5nc4n3C[C@@H]3C[C@H]3CCCC(C)(C)C(=O)N[C@@H]5C)n(C)c12 [Example 274, (3˜{R},5˜{R},12˜{R})-18-[5-[(3˜{R})-3-aminopiperidine-1-carbonyl]-7-methoxy-1-methyl-benzimidazol-2-yl]-9,9,12-trimethyl-1,11,20-triazatetracyclo[11.5.2.0^{3,5}.0^{16,19}]icosa-13(20),14,16(19),17-tetraen-10-one] | 104 |
| COc1cc(C(=O)N2CC[C@@H](F)[C@@H](N)C2)cc2nc(-c3cc4ccc5nc4n3CCCCCCC(C)(C)C(=O)N[C@@H]5C)n(C)c12 [Example 276, (11~{R})-17-[5-[(3~{S},4~{R})-3-amino-4-fluoro-piperidine-1-carbonyl]-7-methoxy-1-methyl-benzimidazol-2-yl]-8,8,11-trimethyl-1,10,19-triazatricyclo[10.5.2.0^{15,18}]nonadeca-12(19),13,15(18),16-tetraen-9-one] | 343 |
| COc1cc(C(=O)N2[C@H]3CC[C@@H]2[C@H](N)C3)cc2nc(-c3cc4ccc5nc4n3CCCCCCC3(CCC3)C(=O)N[C@@H]5C)n(C)c12 [Example 278, (11~{R})-17-[5-[(1~{R},2~{R},4~{S})-2-amino-7-azabicyclo[2.2.1]heptane-7-carbonyl]-7-methoxy-1-methyl-benzimidazol-2-yl]-11-methyl-spiro[1,10,19-triazatricyclo[10.5.2.0^{15,18}]nonadeca-12(19),13,15(18),16-tetraene-8,1′-cyclobutane]-9-one] | 47 |
| COc1cc(C(=O)N2[C@H]3CC[C@@H]2[C@H](N)C3)cc2nc(-c3cc4ccc5nc4n3CCCCCCC3(CC3)C(=O)N[C@@H]5C)n(C)c12 [Example 279, (11~{R})-17-[5-[(1~{R},2~{R},4~{S})-2-amino-7-azabicyclo[2.2.1]heptane-7-carbonyl]-7-methoxy-1-methyl-benzimidazol-2-yl]-11-methyl-spiro[1,10,19-triazatricyclo[10.5.2.0^{15,18}]nonadeca-12(19),13,15(18),16-tetraene-8,1′-cyclopropane]-9-one] | 82 |
| COc1cc(C(=O)N2[C@H]3CC[C@@H]2[C@H](N)C3)cc2nc(-c3cc4ccc5nc4n3CCCCCCCC3(CCC3)C(=O)N[C@@H]5C)n(C)c12 [Example 280] | 64 |
| COc1cc(C(=O)N2[C@H]3CC[C@@H]2[C@H](N)C3)cc2nc(-c3cc4ccc5nc4n3CCCCCCCC3(CC3)C(=O)N[C@@H]5C)n(C)c12 [Example 281, (12~{R})-18-[5-[(1~{R},2~{R},4~{S})-2-amino-7-azabicyclo[2.2.1]heptane-7-carbonyl]-7-methoxy-1-methyl-benzimidazol-2-yl]-12-methyl-spiro[1,11,20-triazatricyclo[11.5.2.0^{16,19}]icosa-13(20),14,16(19),17-tetraene-9,1′-cyclopropane]-10-one] | 88 |
